Data from PMC8227227 (Viruses, 2021).
Read-outs that look alike come from different tables or passages of the source.

Columns and labels:
HIV-1 PR [1] = molecular target: T1, HIV-1 PR (Human immunodeficiency virus type 1 group M subtype B, UniProt P04585); conditions: values published previously, cited from earlier work
T1 construct: assayed as substrates of the HIV-1 protease (PR)

HIV-1 PR [2] = molecular target: T1, HIV-1 PR; test: Enzyme assay with synthetic oligopeptide substrates (RP-HPLC); assay type: biochemical, human immunodeficiency virus type 1 (HIV-1); conditions: for Km / kcat: Table 3, revertant peptides, 37 °C, 1 h; for Km: 0.25 M potassium phosphate pH 5.6, 7.5% glycerol, 1 mM EDTA, 5 mM DTT, 2 M NaCl, RP-HPLC, Michaelis-Menten fit; for kcat: same buffer, peptides not cleaved at threshold given as estimated kcat < 0.01 s^−1; for kcat/Km: Table 3, specificity constant calculated from the Km and kcat values; for cleavability by HIV-1 PR: threshold estimated kcat < 0.01 s^−1

## KIVKCFFCGK [peptide 2, P1′ substituted NC-1 decapeptide […]]
HIV-1 PR [1]; Table 2
  Km: 20 µM
  kcat: 0.900 ^1 s^−1
  kcat/Km: 59.6 ^1 mM^−1 s^−1

## KIVKCFGCGK [peptide 14, P1′ substituted NC-1 decapeptide […]]
HIV-1 PR [1]; Table 2
  Km: 1340 µM
  kcat: 0.002 ^1 s^−1
  kcat/Km: 0.001 ^1 mM^−1 s^−1
HIV-1 PR [1]; Table 3, repeated from Table 2
  Km: 1340 µM
  kcat: 0.002 s⁻¹
  kcat/Km: 0.001 mM⁻¹ s⁻¹

## KIVKCFNCGK [peptide 1]
HIV-1 PR [1]; Table 2
  Km: 430 µM
  kcat: 0.017 ^1 s^−1
  kcat/Km: 0.040 ^1 mM^−1 s^−1
HIV-1 PR [1]; Table 3, repeated from Table 2
  Km: 430 µM
  kcat: 0.017 s⁻¹
  kcat/Km: 0.040 mM⁻¹ s⁻¹

## KIVKICFGCGKR [peptide 17, revertant NC-1 cleavage site peptide […]]
HIV-1 PR [2]
  Km: 70 µM
  kcat: 0.025 s⁻¹
  kcat/Km: 0.35 mM⁻¹ s⁻¹

## KIVTCFGCGK [peptide 15, revertant NC-1 cleavage site peptide […]]
HIV-1 PR [2]
  kcat: <0.010 s⁻¹
  cleavability by HIV-1 PR: did not yield a cleavable peptide

## RKIVICFGCGKR [peptide 16, revertant NC-1 cleavage site peptide […]]
HIV-1 PR [2]
  Km: 35 µM
  kcat: 0.034 s⁻¹
  kcat/Km: 0.97 ^5 mM^−1 s^−1

## RKIVICFGCIKR [peptide 19, revertant NC-1 cleavage site peptide […]]
HIV-1 PR [2]
  Km: < 10 µM
  kcat: 0.015 s⁻¹

## RKIVKCFGCIKR [peptide 18, revertant NC-1 cleavage site peptide […]]
HIV-1 PR [2]
  kcat: <0.010 s⁻¹
  cleavability by HIV-1 PR: did not provide a cleavable peptide
